Data published in patent US10350228B2, “Treatment of sickle cell disease and inflammatory conditions” (Seattle Genetics, Inc., priority 2012, dated 2019).
Entries after “also recorded” stand apart in the source; their conditions may differ.

How the values were obtained:
[1] = tested on: NY1DD sickle cell mice; assay: Hemoglobin-induced vascular stasis in dorsal skin fold chamber venules; assay type: in vivo; settings: 20 mM in drinking water 7 days
Method: NY1DD sickle cell mice were given plain water or 20 or 100 mM 2-fluorofucose in their drinking water ad libitum for 7 days. On day 4, dorsal skin fold chambers were implanted onto the mice (n=4). On day 7, flowing venules in the dorsal skin-fold chamber window were selected and mapped using intravital microscopy. Thereafter, the mice were infused via the tail vein with human stroma-free hemoglobin (0.32 μmols heme/kg), a known inducer of vascular stasis in SCD mice. At 1 and 4 hours after infusion the same venules were re-examined and the percentage of vessels that had become static (no flow) was recorded. A control group of NY1DD mice (n=3) with implanted dorsal skin-fold chambers was given water to drink and injected intraperitoneally with hemin (40 μmols/kg×3 days) a known inhibitor of vascular stasis

[2] = tested on: NF-κB phospho-p65; assay: Western blot of NF-κB phospho-p65 in liver nuclear extracts of sickle cell mice; assay type: in vivo, NY1DD sickle cell mice; settings: 7 days
Method: (§1) NY1DD sickle cell mice were given plain water or 20 or 100 mM 2-fluorofucose in their drinking water ad libitum for 7 days. The treatment and control group had four mice per treatment group. On day 7, the mice were sacrificed with CO2. An EDTA blood sample was collected from the heart and the liver was removed and frozen in liquid nitrogen. Total white blood cell counts and differentials were performed by manual counting using a hemocytometer and Wright-stained blood smears, respectively. Nuclear extracts were prepared from nuclei isolated from liver homogenates. Western blots of the nuclear extracts were immunostained with antibodies to NF-κB phospho-p65 a marker of NF-κB activation.

[3] = tested on: E-selectin; assay: Adhesion of LS174T cells to immobilized E-selectin; assay type: cell-based; settings: cells cultured with 100 μM for 10 days; adhesion at 4° C.
Method: LS174T cells (ATCC) were cultured in MEM-Eagle with 10% FBS with or without 100 μM 2-fluorofucose for 10 days. For adhesion to purified E-selectin, non-tissue culture treated 96-well clear bottom black culture plates were coated with E-selectin-Fc chimera (5 μg/mL, PBS) and controls with 3% BSA/PBS, 2 hr at 37° C., then overnight at 4° C. Wells were washed two times with PBS and blocked with 3% BSA/PBS (2 hr, room temperature). LS174T cells were harvested and washed with PBS 2 times, labeled with 5 μM Calcein-AM in serum-free medium (15 min), and washed with DBPS two times. Cells in DPBS (100 μL) of were added to each well and the plate was kept at 4° C. for 2 hr. Plates were read at 480 nm excitation and 520 nm emission (total cell reading) and then washed with DPBS four times, followed by fluorescent analysis.

[4] = tested on: antibody core fucosylation; assay: Inhibition of antibody core fucosylation by fucose analogs; assay type: cell-based
Source text: Methods of determining whether a fucose analog is capable of having an effect on antibody core fucosylation is provided in WO 2012/019165.

[5] = tested on: white blood cells; assay: White blood cell counts in sickle cell mice; assay type: in vivo, NY1DD sickle cell mice; settings: 7 days
Method: as §1

[6] = tested on: activated HUVEC cells; assay: Adhesion of LS174T cells to TNFα-activated HUVEC cells; assay type: cell-based; settings: cells cultured with 100 μM for 10 days; adhesion at 4° C.
Method: For adhesion to activated HUVEC cells, non-tissue culture treated 96-well clear bottom black culture plates were coated with attachment factor (100 μL/well), 30 min at room temperature. Wells were aspirated and HUVECs were added to half of the wells (40,000 cells/200 μL cell culture medium) while 3% BSA/PBS was added to the remaining control wells (100 μL) and the plate was incubated overnight at 37° C., 5% CO2. The confluent HUVEC cells were then treated with TNFα (20 ng/mL in PBS) for 4 hr at 37° C. Meanwhile tumor cells were labeled with Calcein-AM as described. The wells of the 96-well plate were all aspirated and seeded with 2-fluorofucose-treated or untreated labeled LS174T cells (500000 cells/well) and the plate was kept at 4° C. for 2 hr. Plates were read at 480 nm excitation and 520 nm emission (total cell reading) and then washed with DPBS four times, followed by fluorescent analysis. (see FIG. 4; The numeral 1 refers to 2-fluorofucose).

[7] = tested on: blood neutrophils; assay: Blood neutrophil counts in treated mice; assay type: in vivo, Balb/c mice; settings: 10 or 100 mM in drinking water, day 21
Method: (§2) Female Balb/c mice were given oral 2-fluorofucose in their drinking water (10 mM, 100 mM, n=3/group) or left untreated. Mice remained on the 2-fluorofucose-containing water through day 21 when blood was collected. Pre-dose bleeds were collected for baseline comparison. Total white cells/μL blood were determined by hemacytometer using Turk's solution (0.01% gentian violet in 3% acetic acid) to exclude red blood cells. RBCs were eliminated from the remainder of the blood by osmotic lysis for flow cytometric analysis. Cells were incubated with anti-Gr-1-FITC antibodies (BD Biosciences) to identify neutrophils, and a recombinant P-selectin-human Fc fusion protein (R&D Systems) or a recombinant E-selectin-human Fc fusion protein. Cells were washed and then incubated with a PE-labeled goat anti-human IgG-Fc secondary antibody (Jackson Immunoresearch) to detect bound P-selectin or E-selectin. Samples were collected on a FACSCalibur flow cytometer and analyzed using CellQuest software. The percentage of Gr-1+ cells was determined and absolute number of neutrophils was calculated using the total white cell number from the hemacytometer count. In addition, flow samples were gated for Gr-1+ cells to assess P-selectin or E-selectin binding to neutrophils by histogram analysis. The geometric mean of the P-selectin or E-selectin fluorescent signal was determined from the histogram. […]

[8] = tested on: E-selectin; assay: E-selectin binding to neutrophils from treated mice (flow cytometry); assay type: in vivo, Balb/c mice; settings: 10 or 100 mM in drinking water, day 21
Method: as §2

[9] = tested on: P-selectin; assay: P-selectin binding to neutrophils from treated mice (flow cytometry); assay type: in vivo, Balb/c mice; settings: 10 or 100 mM in drinking water, day 21
Method: as §2

## C[C@H](O)[C@@H](O)[C@@H](O)[C@H](F)C=O [2-fluorofucose, 2-deoxy-2-fluorofucose]
[1]; 1 hour after hemoglobin infusion
  percent static venules (vascular stasis): partially inhibited stasis; also recorded: partially diminished
[1]; 4 hours after hemoglobin infusion
  percent static venules (vascular stasis): partially inhibited stasis; also recorded: partially diminished
[2]; 20 mM in drinking water
  Nuclear NF-κB phospho-p65 in liver: partially diminished
[2]; 100 mM in drinking water
  Nuclear NF-κB phospho-p65 in liver: markedly decreased
[3]
  adhesion of LS174T cells to immobilized E-selectin: decreased adhesion; also recorded: diminished adhesion to selectins
[4]; Table 2, 50 μM analog, read-out: Inhibition at 50 μM
  inhibition at 50 µM: > 80%
[4]; Table 2, 1 mM analog
  inhibition at 1000 µM: > 80%
[5]; 20 mM in drinking water
  White blood cells counts (mean+SD): 22.1+5.2 K/μL
[5]; 100 mM in drinking water
  White blood cells counts (mean+SD): 34.2+7.2 K/μL
[6]
  adhesion of LS174T cells to HUVEC cells activated with TNFα: decreased adhesion
[7]
  blood neutrophil counts: significantly increased
[8]
  E-selectin binding to neutrophils: loss
[9]
  P-selectin binding to neutrophils: dimished and loss
